Test [1] deals with Tyrosine-protein kinase ABL1 (Homo sapiens), P00519 [H396P]. Nature of the test: Inhibition of human ABL1 H396P mutant (27 to end residues) assessed as residual activity at 1 uM using EAIYAAPFAKKK as substrate incubated for 40 mins in presence of [gamma-33ATP] by scintillation counting based radiometry assay relative to control.
Test [2] deals with Bone morphogenetic protein receptor type-1B (Homo sapiens) (UniProt O00238). Nature of the test: Inhibition of human ALK6 (148 to end residues) assessed as residual activity at 1 uM using casein as substrate incubated for 40 mins in presence of [gamma-33ATP] by scintillation counting based radiometry assay relative to control.
Test [3] deals with Tyrosine-protein kinase receptor UFO (Homo sapiens), P30530 [Q764R]. Nature of the test: Inhibition of recombinant human Axl Q764R mutant (473 to end residues) assessed as residual activity at 1 uM using KKSRGDYMTMQIG as substrate incubated for 40 mins in presence of [gamma-33ATP] by scintillation counting based radiometry assay relative to control.
Test [4] concerns the target Serine/threonine-protein kinase B-raf (Homo sapiens) (UniProt P15056). Nature of the test: Inhibition of recombinant full length human B-Raf (416 to end residues) assessed as residual activity at 1 uM using myelin basic protein substrate incubated for 40 mins in presence of [gamma-33ATP] by scintillation counting based radiometry assay relative to control.
Test [5] concerns the target CDK9/cyclin T1 (Homo sapiens) (UniProt O60563+P50750). Nature of the test: Inhibition of recombinant full length human CDK9/cyclinT1 assessed as residual activity at 1 uM using KTFCGTPEYLAPEVRREPRILSEEEQEMFRDFDYIADWC as substrate incubated for 40 mins in presence of [gamma-33ATP] by scintillation counting based radiometry assay relative to control. The class given is protein-complex assay.

For test [6], the system named is RAF proto-oncogene serine/threonine-protein kinase (Homo sapiens), P04049 [Y340D,Y341D]. The experiment in a line: Inhibition of recombinant human C-Raf Y340D/Y341D double mutant (306 to end residues) assessed as residual activity at 1 uM poly(Glu, Tyr) 4:1 as substrate incubated 40 mins in presence of [gamma-33ATP] by scintillation counting based radiometry assay relative to control.

Test [7] addresses Dual specificity tyrosine-phosphorylation-regulated kinase 1B (Homo sapiens) (UniProt Q9Y463). Nature of the test: Inhibition of recombinant human DYRK1B assessed as residual activity at 1 uM using RRRFRPASPLRGPPK as substrate at 40 mins in presence of [gamma-33ATP] by scintillation counting based radiometry assay relative to control.
For test [8], the target named is Dual specificity tyrosine-phosphorylation-regulated kinase 3 (Homo sapiens) (UniProt O43781). The experiment in a line: Inhibition of recombinant human DYRK3 assessed as residual activity at 1 uM using RRRFRPASPLRGPPK as substrate at 40 mins in presence of [gamma-33ATP] by scintillation counting based radiometry assay relative to control.
Test [9] has as its system Eukaryotic elongation factor 2 kinase (Homo sapiens), O00418 [H23R]. Nature of the test: Inhibition of recombinant human eEF-2K H23R mutant (2 to end residues) assessed as residual activity at 1 uM using RKKFGESEKTKTKEFL as substrate at 40 mins in presence of [gamma-33ATP] by scintillation counting based radiometry assay relative to control.
The target of test [10] is Macrophage colony-stimulating factor 1 receptor (Homo sapiens) (UniProt P07333). Nature of the test: Inhibition of recombinant human FMS (538 to end residues) assessed as residual activity at 1 uM using EEEEYEEEEEEYYIIEEEEEEYEEEEEEYYEEEEEEKKKK as substrate at 40 mins in presence of [gamma-33ATP] by scintillation counting based radiometry assay relative to control.
Test [11] concerns the target Inhibitor of nuclear factor kappa-B kinase subunit alpha (Homo sapiens) (UniProt O15111). Nature of the test: Inhibition of full length human IKKalpha assessed as residual activity at 1 uM using peptide as substrate after 40 mins by [gamma-33ATP] radiometric assay relative to control.
Test [12] has as its target Mitogen-activated protein kinase kinase kinase kinase 4 (Homo sapiens) (UniProt O95819). Nature of the test: Inhibition of recombinant human MAP4K4 (1 to 328 residues) assessed as residual activity at 1 uM using RLGRDKYKTLRQIRQ as substrate incubated for 40 mins in presence of [gamma-33ATP by scintillation counting based radiometry assay relative to control.
The target of test [13] is Dual specificity mitogen-activated protein kinase kinase 3 (Homo sapiens) (UniProt P46734). Nature of the test: Inhibition of recombinant human MKK3 assessed as residual activity at 1 uM by scintillation counting based radiometry assay relative to control.
For test [14], the system named is Ribosomal protein S6 kinase beta-1 (Homo sapiens), P23443 [T412E]. The experiment in a line: Inhibition of recombinant human p70S6K T412E mutant (1 to 421 residues) assessed as residual activity at 1 uM using KKRNRTLTV as substrate measured after 40 mins in presence of [gamma33P]ATP by scintillation counting method relative to control.
In test [15] the target is Serine/threonine-protein kinase PAK 4 (Homo sapiens) (UniProt O96013). The experiment in a line: Inhibition of recombinant human PAK4 (295 to end residues) assessed as residual activity at 1 uM using myelin basic protein as substrate measured after 40 mins in presence of [gamma33P]ATP by scintillation counting method relative to control.
Test [16] concerns Phosphorylase b kinase gamma catalytic chain, liver/testis isoform (Homo sapiens), P15735 [F290L]. Nature of the test: Inhibition of recombinant human PhKgamma2 F290L mutant (1 to 301 residues) assessed as residual activity at 1 uM using KKLNRTLSFAEPG as substrate measured after 40 mins in presence of [gamma33P]ATP by scintillation counting method relative to control.
Test [17] concerns the target Ribosomal protein S6 kinase alpha-1 (Homo sapiens) (UniProt Q15418). The experiment in a line: Inhibition of recombinant full length human Rsk1 assessed as residual activity at 1 uM using KKKNRTLSVA as substrate measured after 40 mins in presence of [gamma33P]ATP by scintillation counting method relative to control.
Test [18] deals with Tau-tubulin kinase 1 (Homo sapiens) (UniProt Q5TCY1). The experiment in a line: Inhibition of human TTBK1 (1 to 479 residues) assessed as residual activity at 1 uM using Casein as substrate measured after 40 mins in presence of [gamma33P]ATP by scintillation counting method relative to control.
The target of test [19] is Serine-protein kinase ATM (Homo sapiens) (UniProt Q13315). The experiment in a line: Inhibition of recombinant full-length human ATM at 1 uM assessed as residual activity at 1 uM using GST-cMyc-p53 as substrate measured after 40 mins by ELISA. Background: An ELISA detects its analyte on a solid surface through an enzyme-linked reagent.
The subject of test [20] is PI3-kinase p110-alpha/p85-alpha (Homo sapiens), P27986+P42336 [H1047R]. Nature of the test: Inhibition of recombinant full-length human PI3K p110alpha H1047R mutant/p85alpha assessed as residual activity at 1 uM assessed as residual activity at 1 uM using phosphatidylinositol-4, 5-bisphosphate as substrate incubated for 40 mins in presence of [gamma33P]ATP by scintillation counting based radiometry assay relative to control. The class given is protein-complex assay.

Dual specificity tyrosine-phosphorylation-regulated kinase 1B (Homo sapiens), sequence (Q9Y463 whole entry, looked up): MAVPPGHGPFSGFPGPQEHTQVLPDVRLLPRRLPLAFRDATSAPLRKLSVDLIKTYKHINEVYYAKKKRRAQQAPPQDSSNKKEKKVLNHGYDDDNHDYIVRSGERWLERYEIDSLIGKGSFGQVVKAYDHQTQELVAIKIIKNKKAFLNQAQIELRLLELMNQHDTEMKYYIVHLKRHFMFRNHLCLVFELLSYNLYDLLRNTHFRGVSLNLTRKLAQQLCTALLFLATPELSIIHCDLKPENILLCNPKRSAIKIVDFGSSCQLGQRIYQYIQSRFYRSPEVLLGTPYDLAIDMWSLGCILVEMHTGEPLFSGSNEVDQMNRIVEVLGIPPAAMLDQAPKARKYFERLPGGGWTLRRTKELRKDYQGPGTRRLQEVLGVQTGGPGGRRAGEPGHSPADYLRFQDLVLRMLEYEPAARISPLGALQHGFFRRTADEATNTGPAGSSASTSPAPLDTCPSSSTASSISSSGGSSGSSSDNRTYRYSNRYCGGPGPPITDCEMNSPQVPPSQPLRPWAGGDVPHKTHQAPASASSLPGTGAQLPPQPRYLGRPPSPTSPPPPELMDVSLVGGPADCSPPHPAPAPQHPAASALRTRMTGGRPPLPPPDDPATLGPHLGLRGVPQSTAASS
Bone morphogenetic protein receptor type-1B (Homo sapiens), sequence (O00238 whole entry): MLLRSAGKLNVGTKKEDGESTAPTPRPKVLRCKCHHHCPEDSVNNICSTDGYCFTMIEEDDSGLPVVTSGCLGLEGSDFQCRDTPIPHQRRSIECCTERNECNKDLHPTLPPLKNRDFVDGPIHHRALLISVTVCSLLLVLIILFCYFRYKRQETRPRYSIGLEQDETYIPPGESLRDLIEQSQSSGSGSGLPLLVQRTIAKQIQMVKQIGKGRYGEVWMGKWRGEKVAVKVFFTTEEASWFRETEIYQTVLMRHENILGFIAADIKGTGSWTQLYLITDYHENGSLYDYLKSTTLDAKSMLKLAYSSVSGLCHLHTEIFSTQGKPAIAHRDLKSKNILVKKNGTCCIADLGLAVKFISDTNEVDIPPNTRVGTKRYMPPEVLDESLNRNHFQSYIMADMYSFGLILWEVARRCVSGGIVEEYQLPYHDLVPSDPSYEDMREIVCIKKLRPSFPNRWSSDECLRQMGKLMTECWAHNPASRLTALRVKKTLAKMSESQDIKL
Tau-tubulin kinase 1 (Homo sapiens), sequence (Q5TCY1 whole entry, the tested form may be a part): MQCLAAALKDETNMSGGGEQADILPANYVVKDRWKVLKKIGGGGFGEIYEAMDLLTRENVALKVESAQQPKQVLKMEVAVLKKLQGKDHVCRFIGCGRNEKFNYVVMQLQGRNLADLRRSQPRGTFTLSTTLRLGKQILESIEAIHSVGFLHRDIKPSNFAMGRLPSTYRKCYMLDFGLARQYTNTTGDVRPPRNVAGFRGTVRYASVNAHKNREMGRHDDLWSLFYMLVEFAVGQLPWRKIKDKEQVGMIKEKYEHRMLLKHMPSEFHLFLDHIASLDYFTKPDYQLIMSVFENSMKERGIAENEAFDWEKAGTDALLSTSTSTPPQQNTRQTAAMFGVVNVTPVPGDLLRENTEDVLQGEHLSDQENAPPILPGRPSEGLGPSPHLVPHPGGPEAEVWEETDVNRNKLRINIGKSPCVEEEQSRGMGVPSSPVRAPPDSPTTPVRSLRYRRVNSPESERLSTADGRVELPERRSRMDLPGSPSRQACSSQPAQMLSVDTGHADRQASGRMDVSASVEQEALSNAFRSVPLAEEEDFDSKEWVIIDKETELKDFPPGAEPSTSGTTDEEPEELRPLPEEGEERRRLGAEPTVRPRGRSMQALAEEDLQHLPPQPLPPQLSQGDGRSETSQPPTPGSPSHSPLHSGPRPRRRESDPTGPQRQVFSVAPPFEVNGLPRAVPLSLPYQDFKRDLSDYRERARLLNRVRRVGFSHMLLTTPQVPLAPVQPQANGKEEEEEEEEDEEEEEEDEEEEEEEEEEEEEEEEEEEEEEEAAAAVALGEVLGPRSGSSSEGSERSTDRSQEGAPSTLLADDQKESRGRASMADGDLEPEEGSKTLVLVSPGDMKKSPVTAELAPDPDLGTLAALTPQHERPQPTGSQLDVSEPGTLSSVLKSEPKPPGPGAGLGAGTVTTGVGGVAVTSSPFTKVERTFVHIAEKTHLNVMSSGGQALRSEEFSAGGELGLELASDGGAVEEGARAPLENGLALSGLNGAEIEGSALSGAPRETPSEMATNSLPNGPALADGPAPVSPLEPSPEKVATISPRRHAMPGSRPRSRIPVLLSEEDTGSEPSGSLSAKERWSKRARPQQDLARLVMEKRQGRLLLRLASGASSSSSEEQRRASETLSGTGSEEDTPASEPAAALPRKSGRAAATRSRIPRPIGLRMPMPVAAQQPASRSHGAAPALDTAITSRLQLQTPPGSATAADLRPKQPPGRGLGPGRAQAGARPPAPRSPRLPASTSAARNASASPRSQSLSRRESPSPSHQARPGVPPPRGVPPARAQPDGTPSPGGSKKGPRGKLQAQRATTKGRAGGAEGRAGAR
Eukaryotic elongation factor 2 kinase (Homo sapiens), O00418 [H23R], sequence (O00418 whole entry H23R): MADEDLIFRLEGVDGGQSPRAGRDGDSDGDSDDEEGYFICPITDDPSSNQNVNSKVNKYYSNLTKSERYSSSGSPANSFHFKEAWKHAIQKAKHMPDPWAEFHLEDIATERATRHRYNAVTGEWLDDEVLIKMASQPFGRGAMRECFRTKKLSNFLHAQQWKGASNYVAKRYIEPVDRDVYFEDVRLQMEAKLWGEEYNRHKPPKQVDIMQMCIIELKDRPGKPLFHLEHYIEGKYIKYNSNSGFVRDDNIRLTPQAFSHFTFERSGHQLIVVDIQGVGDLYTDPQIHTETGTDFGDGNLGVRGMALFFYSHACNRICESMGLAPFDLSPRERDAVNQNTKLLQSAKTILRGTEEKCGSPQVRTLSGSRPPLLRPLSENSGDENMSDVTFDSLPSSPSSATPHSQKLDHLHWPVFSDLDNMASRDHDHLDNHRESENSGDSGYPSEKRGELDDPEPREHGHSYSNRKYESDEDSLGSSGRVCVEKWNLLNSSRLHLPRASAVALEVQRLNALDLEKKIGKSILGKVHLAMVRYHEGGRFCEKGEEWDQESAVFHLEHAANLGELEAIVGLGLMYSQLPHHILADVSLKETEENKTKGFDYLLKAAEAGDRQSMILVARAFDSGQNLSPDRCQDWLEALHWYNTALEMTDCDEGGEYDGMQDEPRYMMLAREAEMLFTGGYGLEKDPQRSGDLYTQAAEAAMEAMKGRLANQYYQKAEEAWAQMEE
Dual specificity tyrosine-phosphorylation-regulated kinase 3 (Homo sapiens), sequence (O43781 whole entry): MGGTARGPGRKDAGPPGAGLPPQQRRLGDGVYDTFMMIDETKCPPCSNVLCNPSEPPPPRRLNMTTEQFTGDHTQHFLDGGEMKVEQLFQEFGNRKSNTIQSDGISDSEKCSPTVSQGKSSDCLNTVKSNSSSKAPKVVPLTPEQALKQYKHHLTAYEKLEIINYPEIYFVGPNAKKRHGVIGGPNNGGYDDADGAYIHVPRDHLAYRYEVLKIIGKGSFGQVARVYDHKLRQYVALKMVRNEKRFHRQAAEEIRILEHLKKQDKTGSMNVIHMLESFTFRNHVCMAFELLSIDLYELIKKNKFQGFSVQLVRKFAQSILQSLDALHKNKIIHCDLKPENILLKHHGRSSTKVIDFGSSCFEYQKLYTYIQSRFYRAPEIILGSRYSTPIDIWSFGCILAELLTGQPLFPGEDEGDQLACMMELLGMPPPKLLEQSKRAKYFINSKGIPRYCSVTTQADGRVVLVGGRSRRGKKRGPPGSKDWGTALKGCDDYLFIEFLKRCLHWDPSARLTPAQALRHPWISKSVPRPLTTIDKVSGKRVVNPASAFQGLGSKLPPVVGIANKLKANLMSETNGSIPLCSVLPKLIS
Dual specificity mitogen-activated protein kinase kinase 3 (Homo sapiens), sequence (P46734 whole entry, the tested form may be a part): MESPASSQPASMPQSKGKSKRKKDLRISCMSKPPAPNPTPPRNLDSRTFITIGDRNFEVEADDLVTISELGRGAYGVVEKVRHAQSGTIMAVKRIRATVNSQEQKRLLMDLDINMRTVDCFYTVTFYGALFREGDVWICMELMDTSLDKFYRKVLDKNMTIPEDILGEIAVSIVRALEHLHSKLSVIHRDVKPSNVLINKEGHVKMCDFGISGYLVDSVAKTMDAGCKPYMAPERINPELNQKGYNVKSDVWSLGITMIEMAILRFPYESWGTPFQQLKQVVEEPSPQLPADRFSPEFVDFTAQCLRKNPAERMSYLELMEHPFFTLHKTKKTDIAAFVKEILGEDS
Serine/threonine-protein kinase B-raf (Homo sapiens), sequence (P15056 whole entry): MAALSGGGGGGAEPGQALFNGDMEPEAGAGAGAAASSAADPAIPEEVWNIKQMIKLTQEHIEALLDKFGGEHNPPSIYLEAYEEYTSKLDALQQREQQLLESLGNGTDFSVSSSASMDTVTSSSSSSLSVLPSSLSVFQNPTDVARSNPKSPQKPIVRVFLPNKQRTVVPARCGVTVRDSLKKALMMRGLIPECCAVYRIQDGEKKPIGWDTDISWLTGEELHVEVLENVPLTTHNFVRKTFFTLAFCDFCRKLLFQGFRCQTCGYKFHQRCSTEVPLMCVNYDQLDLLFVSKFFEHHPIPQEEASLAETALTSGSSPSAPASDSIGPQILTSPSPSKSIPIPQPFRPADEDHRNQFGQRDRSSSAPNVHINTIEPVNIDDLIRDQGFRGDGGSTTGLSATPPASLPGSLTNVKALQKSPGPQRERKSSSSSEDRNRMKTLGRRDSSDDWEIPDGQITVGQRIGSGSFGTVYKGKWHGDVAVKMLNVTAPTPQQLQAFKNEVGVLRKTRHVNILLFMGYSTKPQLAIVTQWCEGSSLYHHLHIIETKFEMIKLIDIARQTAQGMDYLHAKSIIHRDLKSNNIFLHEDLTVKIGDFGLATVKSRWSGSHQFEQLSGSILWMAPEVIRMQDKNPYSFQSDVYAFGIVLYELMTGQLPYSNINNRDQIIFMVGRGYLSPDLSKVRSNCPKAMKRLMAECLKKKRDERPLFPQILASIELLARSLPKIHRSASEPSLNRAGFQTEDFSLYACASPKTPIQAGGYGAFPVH

Consider `C=CCOC(=O)c1cc(-c2ccc(/C=C3/NC(=S)NC3=O)o2)ccc1Cl`, for which the Activity in test [1] is 110%; in test [2], 90%; in [3], 101%; in test [4], 90%; in test [5], 86%; in [6], 85%. In addition, the Activity in [7] was found to be 88%; in test [8], 104%; in test [9] it was 98%; in test [10] it was 117%; in test [11] it was 104%; in test [12] it was 95%. Besides, the Activity in [13] is 90%; in [14], 108%; in test [15] it was 101%; in test [16], 104%; in test [17] it was 90%; in test [18], 114%. The Activity in [19] turned out to be 100%; in [20] it was 94%.

Regarding `N=C1NC(=O)/C(=C\c2ccc(-c3cccc([N+](=O)[O-])c3)o2)S1`, the Activity in [1] amounted to 80%; in test [2], 103%; in test [3], 98%; in [4] it was 97%; in test [5], 74%; in test [6], 98%. Moreover, the Activity in test [7] came to 80%; in [8], 76%; in [9], 95%; in test [10], 106%; in test [11], 102%; in [12], 82%. In addition, the Activity in test [13] amounted to 83%; in [14] it was 99%; in test [15] it was 92%; in test [16], 107%; in test [17], 105%; in test [18], 104%. The results for the Activity in test [19] and in [20] were 102% and 100%, respectively.
